# Experimental data from patent US12077501B2, “Compounds and compositions for intracellular delivery of agents” (ModernaTX, Inc., priority 2017, dated 2024).
# Assays:
# hEPO expression [1] = experiment: hEPO (miR126 + miR142) mRNA expression, Tables 8b-8e; format: in vivo; conditions: for AUC: Table 8b; for AUC (mIU/mL*h): lipid:Chol:PEG 1 50:47.5:2.5, Table 8e
# [2] = Encapsulation efficiency of RNA (QUANT-IT RIBOGREEN RNA assay); format: physicochemical
# Summary of the method: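 RiboGreen fluorescence (ex about 480, em about 520 nm) compares nanoparticle samples left intact versus disrupted with 2% Triton X-100 (15 min, 37° C). Samples are first brought to roughly 5 μg/mL in 10 mM Tris-HCl, 1 mM EDTA, pH 7.5; percent free RNA equals the blank-corrected intact/disrupted signal ratio.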
# [3] = Lipid clearance: % dose remaining, Tables 7c and 8b-8e (species not given); format: in vivo
# From the text: In contrast, hEPO expression in rats induced by administration of a nanoparticle composition including a compound according to one of formulae (I), (Ia1)-(Ia6), (Ib), (II), (IIa), (III), and (IIIa) was substantially […] than that measured for MC3. […] Tables 7c and 7d show additional protein expressions and clearance data from compositions with various compounds disclosed herein as compared to with MC3. Tables 7e, 7f and 7g show hEPO expression data in CD-1 mice at a dose of 0.5 mpk.
# [4] = Particle size and polydispersity index of nanoparticle compositions (Zetasizer Nano ZS); format: physicochemical
# Method: A Zetasizer Nano ZS (Malvem Instruments Ltd, Malvem, Worcestershire, UK) can be used to determine the particle size, the polydispersity index (PDI) and the zeta potential of the nanoparticle compositions in 1×PBS in determining particle size and 15 mM PBS in determining zeta potential.
# hEPO expression [5] = experiment: hEPO expression in CD-1 mice compared with MC3; format: in vivo; conditions: intravenous, 0.5 mpk, Table 7e
# Summary of the method: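 CD-1 mice, 0.5 mpk dose of test-compound nanoparticle formulation; hEPO protein expression read out; clearance data also recorded.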
# [6] = pKa of nanoparticle compositions; format: physicochemical; conditions: Table 1c
# [7] = Lipid clearance: % dose remaining in liver of CD-1 mice; format: in vivo; conditions: intravenous, 0.5 mg/kg, CD-1 mouse, Table 8a
# Summary of the method: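 Expression in CD-1 mice after 0.5 mpk hEPO dosing is included. Lipid clearance is given as % of dose left in CD-1 mouse liver and expression as AUC (p/s*h). All follow intravenous delivery of nanoparticle formulations, with MC3 as reference.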
# [8] = Lipid purity change after storage in EtOH for 96 h at 25 or 37 °C; format: physicochemical
# Summary of the method: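 Lipid stability was assessed as purity after storage in ethanol for 96 h at 25 °C or 37 °C.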
# [9] = Table 1d, Formulated with lipid:Chol:DOPE:PEG 1 40:38.5:20:1.5
# [10] = Table 1c, nanoparticle compositions
# [11] = lipid:Chol:PEG 1 50:47.5:2.5, Table 8e
SMILES,AUC (hEPO expression [1]) [pg·h/mL],"EE (%) [2, 9] [%]","% Dose Remaining (liver, 24 h) ([3]; Table 8b) [%]","PDI [4, 9]","Size (nm) [4, 9] [nm]",AUC (mIU/mL*h) (hEPO expression [1]),"% Dose Remaining (liver, 24 h) [3, 11] [%]",further results
"CCCC/C=C\CCCCCCCCN(CCCOC(=O)CCCCCCCCC)CC(=O)N1CCN(C(=O)CN(CCCCCCCCC)CCN(CCCCCCCCC)CCCCCCCCC)CC1 [Compound 140, (Z)-3-((2-(4-(N-(2-(Dinonylamino)ethyl)-N-nonylglycyl)piperazin-1-yl)-2-oxoethyl)(tetradec-9-en-1-yl)amino)propyl Decanoate]",4.55e+07,86.9,1.66,0.14,131.1,,,
"CCCCCCCCCCCCCCN(C/C=C\COC(=O)CCCCCCCC)CC(=O)N1CCN(C(=O)CN(CCCCCCCCC)CCN(CCCCCCCCC)CCCCCCCCC)CC1 [Compound 141, (Z)-4-((2-(4-(N-(2-(dinonylamino)ethyl)-N-nonylglycyl)piperazin-1-yl)-2-oxoethyl)(tetradecyl)amino)but-2-en-1-yl nonanoate]",2.7e+07,97.6,1.41,0.15,131.5,,,
"CCCCCCCCCCN(CCCCCCCCCC)CCCC(=O)N1CCN(C(=O)CCCN(CCCCCCCCCC)CCCCCCCCCC)CC1 [Compound 146, 1,1′-(Piperazine-1,4-diyl)bis(4-(didecylamino)butan-1-one)]",1.27e+07,,81.04,,,,,
"CCCCCCCCCN(CCCCCCCCC)CCN(CCCCCCCCC)CC(=O)N(C)CCN(C)C(=O)CN(CCCCCCCCC)CCCCCCCCC [Compound 151, 2-(Dinonylamino)-N-(2-(2-((2-(dinonylamino)ethyl)(nonyl)amino)-N-methylacetamido)ethyl)-N-methylacetamide]",,,,,,,,"AUC (p/s*h) CD-1 mice 0.5 mpk (hEPO expression [5]): 1.54E+08 p/s*h; EE (%) [2, 10]: 98.8%; pKa [6]: 7.46; % Dose Remaining 24 hr [7]: 75.96%; Lipid % change purity in EtOH, 25° C., 96 h [8]: −0.7%; Lipid % change purity in EtOH, 37° C., 96 h [8]: 2.1%; PDI [4, 10]: 0.18; Size (nm) [4, 10]: 77.4 nm"
"CCCCCCCCCN(CCCCCCCCC)CCN(CCCCCCCCC)CC(=O)N(C)CCN(C)C(=O)CN(CCCCCCCCC)CCCC(=O)OCCCCC [Compound 152, Pentyl 8,11-dimethyl-5,14,17-trinonyl-7,12-dioxo-5,8,11,14,17-pentaazahexacosanoate]",,,,,,,,"AUC (p/s*h) CD-1 mice 0.5 mpk (hEPO expression [5]): 1.09E+08 p/s*h; EE (%) [2, 10]: 98.5%; pKa [6]: 7.48; % Dose Remaining 24 hr [7]: 34.01%; Lipid % change purity in EtOH, 25° C., 96 h [8]: 0%; Lipid % change purity in EtOH, 37° C., 96 h [8]: 2%; PDI [4, 10]: 0.16; Size (nm) [4, 10]: 79.1 nm"
"CCCCCCCCCN(CCCCCCCCC)CCN(CCCCCCCCC)CC(=O)NCCNC(=O)CN(CCCCCCCCC)CCCCCCCCC [Compound 153, 2-(dinonylamino)-N-(2-(2-((2-(dinonylamino)ethyl)(nonyl)amino)acetamido)ethyl)acetamide]",5.62e+07,97.2,84.71,0.23,116.7,,,
"CCCCC/C=C\CCN(CC/C=C\CCCCC)CCN(CC/C=C\CCCCC)CC(=O)N(C)CCN(C)C(=O)CN(CCCCCCCCC)CCCCCCCCC [Compound 154, 2-((2-(di((Z)-non-3-en-1-yl)amino)ethyl)((Z)-non-3-en-1-yl)amino)-N-(2-(2-(dinonylamino)-N-methylacetamido)ethyl)-N-methylacetamide]",1.37e+08,97.8,78.44,0.18,103.3,,,
"CCCCCCCCCN(CCCCCCCCC)CCN(CCCCCCCCC)CC(=O)N(C)CCCN(C)C(=O)CN(CCCCCCCCC)CCCCCCCCC [Compound 155, 2-(dinonylamino)-N-(3-(2-((2-(dinonylamino)ethyl)(nonyl)amino)-N-methylacetamido)propyl)-N-methylacetamide]",8.89e+07,98.4,78.61,0.22,84.4,,,
"CCCCCCCCCN(CCCCCCCCC)CCN(CCCCCCCCC)CC(=O)N(CC)CCN(CC)C(=O)CN(CCCCCCCCC)CCCCCCCCC [Compound 157, 2-(dinonylamino)-N-(2-(2-((2-(dinonylamino)ethyl)(nonyl)amino)-N-ethylacetamido)ethyl)-N-ethylacetamide]",2.08e+08,98.3,42.48,0.11,89.8,,,
"CCCCCCCCCCCCCCN(CCCOC(=O)CCCCCCCCC)CC(=O)N(C)CCN(C)C(=O)CN(CCCCCCCCC)CCN(CCCCCCCCC)CCCCCCCCC [Compound 158, 7,10-dimethyl-13,16-dinonyl-6,11-dioxo-4-tetradecyl-4,7,10,13,16-pentaazapentacosyl Decanoate]",1.03e+07,97.8,0.30,0.20,124.2,,,
"CCCCCCCCCN(CCCCCCCCC)CCCCCCCCN(CCCCCCCCC)CCN(CCCCCCCCC)CCCCCCCCC [Compound 160, N^1-(2-(dinonylamino)ethyl)-N^1,N^8,N^8-trinonyloctane-1,8-diamine]",219000,97.3,60.54,0.25,115.5,,,
"CCCCCCCCCOC(=O)CCCCCCCN(CCCCCCCC(=O)OCCCCCCCCC)CCOCCOCCN(CCCCCCCCC)CCCCCCCCC [Compound 173, Nonyl 18-nonyl-9-(8-(nonyloxy)-8-oxooctyl)-12,15-dioxa-9,18-diazaheptacosanoate]",,,,,,6.70E+06,8.55,
"CCCCCCCCCOC(=O)CCCCCCCN(CCCCCCCC(=O)OC(CCCCCCCC)CCCCCCCC)CCOCCOCCN(CCCCCCCCC)CCCCCCCCC [Compound 174, Heptadecan-9-yl 18-nonyl-9-(8-(nonyloxy)-8-oxooctyl)-12,15-dioxa-9,18-diazaheptacosanoate]",,,,,,5.03E+07,30.05,
"CCCCCCCCCOC(=O)CCCCCCCN(CCCCCCCC(=O)OCCCCCCCCC)CCCCCN(CCCCCCCCC)CCCCCCCCC [Compound 177, Dinonyl 8,8′-((5-(dinonylamino)pentyl)azanediyl)dioctanoate]",,,,,,6.84E+07,35.91,
"CCCCCCCCCOC(=O)CCCCCCCN(CCCCCCCC(=O)OC(CCCCCCCC)CCCCCCCC)CCCCCN(CCCCCCCCC)CCCCCCCCC [Compound 178, Heptadecan-9-yl 8-((5-(dinonylamino)pentyl)(8-(nonyloxy)-8-oxooctyl)amino)octanoate]",,,,,,8.44E+07,44.93,
"CCCCCCCCCOC(=O)CCCCCCCN(CCCCCCCC(=O)OCCCCCCCCC)CCOCCN(CCCCCCCCC)CCCCCCCCC [Compound 179, Dinonyl 8,8′-((2-(2-(dinonylamino)ethoxy)ethyl)azanediyl)dioctanoate]",,,,,,7.79E+06,26.22,
"CCCCCCCCCOC(=O)CCCCCCCN(CCCCCCCC(=O)OC(CCCCCCCC)CCCCCCCC)CCOCCN(CCCCCCCCC)CCCCCCCCC [Compound 180, Heptadecan-9-yl 8-((2-(2-(dinonylamino)ethoxy)ethyl)(8-(nonyloxy)-8-oxooctyl)amino)octanoate]",,,,,,6.53E+07,50.47,
